System: 616215-338-R-J1-PDC spheroids with HUVEC/MSC, viability
Experiment: Anticancer human tumor 616215-338-R-J1-PDC patient-derived colon adenocarcinoma cell line growth inhibition [PI3K]
Details: for viability, T/C: stronger effect = lower value
In short: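 Three cell types, namely tumor cells, endothelial cells and mesenchymal stem cells, formed each spheroid. Combinations with four PI3K inhibitors were screened at clinically achievable concentrations decreasing by half-log, and spheroid viability was recorded.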

[1] = curve of first compound, second compound 0.00316 µM
[2] = curve of first compound, second compound 0.01 µM
[3] = curve of first compound, second compound 0.0316 µM
[4] = curve of first compound, second compound 0.1 µM
[5] = curve of first compound, second compound 0.316 µM
[6] = curve of first compound, second compound 1 µM
[7] = second compound 0.00316 µM, first compound 0.000316 µM
[8] = second compound 0.00316 µM, first compound 0.001 µM
[9] = second compound 0.00316 µM, first compound 0.00316 µM
[10] = second compound 0.00316 µM, first compound 0.01 µM
[11] = second compound 0.00316 µM, first compound 0.0316 µM
[12] = second compound 0.00316 µM, first compound 0.1 µM
[13] = second compound 0.01 µM, first compound 0.000316 µM
[14] = second compound 0.01 µM, first compound 0.001 µM
[15] = second compound 0.01 µM, first compound 0.00316 µM
[16] = second compound 0.01 µM, first compound 0.01 µM
[17] = second compound 0.01 µM, first compound 0.0316 µM
[18] = second compound 0.01 µM, first compound 0.1 µM
[19] = second compound 0.0316 µM, first compound 0.000316 µM
[20] = second compound 0.0316 µM, first compound 0.001 µM
[21] = second compound 0.0316 µM, first compound 0.00316 µM
[22] = second compound 0.0316 µM, first compound 0.01 µM
[23] = second compound 0.0316 µM, first compound 0.0316 µM
[24] = second compound 0.0316 µM, first compound 0.1 µM
[25] = second compound 0.1 µM, first compound 0.000316 µM
[26] = second compound 0.1 µM, first compound 0.001 µM
[27] = second compound 0.1 µM, first compound 0.00316 µM
[28] = second compound 0.1 µM, first compound 0.01 µM
[29] = second compound 0.1 µM, first compound 0.0316 µM
[30] = second compound 0.1 µM, first compound 0.1 µM
[31] = second compound 0.316 µM, first compound 0.000316 µM
[32] = second compound 0.316 µM, first compound 0.001 µM
[33] = second compound 0.316 µM, first compound 0.00316 µM
[34] = second compound 0.316 µM, first compound 0.01 µM
[35] = second compound 0.316 µM, first compound 0.0316 µM
[36] = second compound 0.316 µM, first compound 0.1 µM
[37] = second compound 1 µM, first compound 0.000316 µM
[38] = second compound 1 µM, first compound 0.001 µM
[39] = second compound 1 µM, first compound 0.00316 µM
[40] = second compound 1 µM, first compound 0.01 µM
[41] = second compound 1 µM, first compound 0.0316 µM
[42] = second compound 1 µM, first compound 0.1 µM
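Note: spheroids exposed to agents for seven days before the viability read.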

## CC(C)n1nc(-c2ccc3oc(N)nc3c2)c2c(N)ncnc21 + CC(Nc1ccc2c(c1)OCCn1cc(N3C(=O)OCC3C(F)F)nc1-2)C(N)=O
[1]
  IC50: > 100 nM
[2]
  IC50: > 100 nM
[3]
  IC50: > 100 nM
[4]
  IC50: > 100 nM
[5]
  IC50: > 100 nM
[6]
  IC50: 93.2 nM
[7]
  viability, T/C: 92.2%
[8]
  viability, T/C: 90.5%
[9]
  viability, T/C: 87.2%
[10]
  viability, T/C: 114%
[11]
  viability, T/C: 99.2%
[12]
  viability, T/C: 91.5%
[13]
  viability, T/C: 93%
[14]
  viability, T/C: 102%
[15]
  viability, T/C: 111%
[16]
  viability, T/C: 112%
[17]
  viability, T/C: 113%
[18]
  viability, T/C: 102%
[19]
  viability, T/C: 100%
[20]
  viability, T/C: 95.3%
[21]
  viability, T/C: 103%
[22]
  viability, T/C: 118%
[23]
  viability, T/C: 108%
[24]
  viability, T/C: 82.1%
[25]
  viability, T/C: 110%
[26]
  viability, T/C: 95.3%
[27]
  viability, T/C: 100%
[28]
  viability, T/C: 110%
[29]
  viability, T/C: 117%
[30]
  viability, T/C: 81.5%
[31]
  viability, T/C: 96.6%
[32]
  viability, T/C: 95.8%
[33]
  viability, T/C: 98.8%
[34]
  viability, T/C: 110%
[35]
  viability, T/C: 94.6%
[36]
  viability, T/C: 76.2%
[37]
  viability, T/C: 102%
[38]
  viability, T/C: 118%
[39]
  viability, T/C: 106%
[40]
  viability, T/C: 96.7%
[41]
  viability, T/C: 86.6%
[42]
  viability, T/C: 47.4%

## Cn1nccc1Nc1nccc(-c2ccn(C(CO)c3ccc(Cl)c(F)c3)c(=O)c2)n1 (stereo not drawn) + CC(Nc1ncnc2nc[nH]c12)c1cc2cccc(Cl)c2c(=O)n1-c1ccccc1
[3]
  IC50: 5160 nM
[4]
  IC50: 5570 nM
[5]
  IC50: 2940 nM
[6]
  IC50: 5740 nM
Curve of first compound, second compound 3.16 µM
  IC50: 2620 nM
Curve of first compound, second compound 10 µM
  IC50: 1530 nM
[23]
  viability, T/C: 95.6%
[24]
  viability, T/C: 89.2%
Second compound 0.0316 µM, first compound 0.316 µM
  viability, T/C: 89.7%
Second compound 0.0316 µM, first compound 1 µM
  viability, T/C: 68.1%
Second compound 0.0316 µM, first compound 3.16 µM
  viability, T/C: 57%
Second compound 0.0316 µM, first compound 10 µM
  viability, T/C: 42.7%
[29]
  viability, T/C: 106%
[30]
  viability, T/C: 102%
Second compound 0.1 µM, first compound 0.316 µM
  viability, T/C: 84.3%
Second compound 0.1 µM, first compound 1 µM
  viability, T/C: 77.3%
Second compound 0.1 µM, first compound 3.16 µM
  viability, T/C: 65.4%
Second compound 0.1 µM, first compound 10 µM
  viability, T/C: 36.5%
[35]
  viability, T/C: 101%
[36]
  viability, T/C: 102%
Second compound 0.316 µM, first compound 0.316 µM
  viability, T/C: 80.6%
Second compound 0.316 µM, first compound 1 µM
  viability, T/C: 67.1%
Second compound 0.316 µM, first compound 3.16 µM
  viability, T/C: 50.8%
Second compound 0.316 µM, first compound 10 µM
  viability, T/C: 29.9%
[41]
  viability, T/C: 109%
[42]
  viability, T/C: 98.6%
Second compound 1 µM, first compound 0.316 µM
  viability, T/C: 71.8%
Second compound 1 µM, first compound 1 µM
  viability, T/C: 72.9%
Second compound 1 µM, first compound 3.16 µM
  viability, T/C: 61.2%
Second compound 1 µM, first compound 10 µM
  viability, T/C: 40.6%
Second compound 3.16 µM, first compound 0.0316 µM
  viability, T/C: 99.1%
Second compound 3.16 µM, first compound 0.1 µM
  viability, T/C: 105%
Second compound 3.16 µM, first compound 0.316 µM
  viability, T/C: 93.4%
Second compound 3.16 µM, first compound 1 µM
  viability, T/C: 71.3%
Second compound 3.16 µM, first compound 3.16 µM
  viability, T/C: 47.1%
Second compound 3.16 µM, first compound 10 µM
  viability, T/C: 28%
Second compound 10 µM, first compound 0.0316 µM
  viability, T/C: 111%
Second compound 10 µM, first compound 0.1 µM
  viability, T/C: 99%
Second compound 10 µM, first compound 0.316 µM
  viability, T/C: 72.6%
Second compound 10 µM, first compound 1 µM
  viability, T/C: 57.8%
Second compound 10 µM, first compound 3.16 µM
  viability, T/C: 39.7%
Second compound 10 µM, first compound 10 µM
  viability, T/C: 12.7%

## C#Cc1c(F)ccc2cc(O)cc(-c3ncc4c(N5CC6CCC(C5)N6)nc(OCC56CCCN5CC(F)C6)nc4c3F)c12 (stereo not drawn)
Compound 0.0316 µM
  viability, T/C: 97.3% [middle of 4 runs]
Compound 0.1 µM
  viability, T/C: 96.7% [middle of 4 runs]
Compound 0.316 µM
  viability, T/C: 105% [middle of 4 runs]
Compound 1 µM
  viability, T/C: 96.1% [middle of 4 runs]
Compound 3.16 µM
  viability, T/C: 95% [middle of 4 runs]
Compound 10 µM
  viability, T/C: 83% [middle of 4 runs]
Curve of compound
  IC50: > 10000 nM

## Cn1ncnc1[C@H]1c2n[nH]c(=O)c3cc(F)cc(c23)N[C@@H]1c1ccc(F)cc1 + COc1c(OCCCN2CCOCC2)ccc2c3n(c(=NC(=O)c4cnc(N)nc4)nc12)CCN3
[1]
  IC50: > 100 nM
[2]
  IC50: > 100 nM
[3]
  IC50: > 100 nM
[4]
  IC50: > 100 nM
[5]
  IC50: < 0.316 nM
[6]
  IC50: < 0.316 nM
[7]
  viability, T/C: 99.2%
[8]
  viability, T/C: 101%
[9]
  viability, T/C: 107%
[10]
  viability, T/C: 95.2%
[11]
  viability, T/C: 92.5%
[12]
  viability, T/C: 94.1%
[13]
  viability, T/C: 93.8%
[14]
  viability, T/C: 95.7%
[15]
  viability, T/C: 97.9%
[16]
  viability, T/C: 97.7%
[17]
  viability, T/C: 96.9%
[18]
  viability, T/C: 102%
[19]
  viability, T/C: 96.9%
[20]
  viability, T/C: 99.3%
[21]
  viability, T/C: 113%
[22]
  viability, T/C: 98%
[23]
  viability, T/C: 97%
[24]
  viability, T/C: 95.7%
[25]
  viability, T/C: 111%
[26]
  viability, T/C: 93.6%
[27]
  viability, T/C: 88.5%
[28]
  viability, T/C: 81%
[29]
  viability, T/C: 89.4%
[30]
  viability, T/C: 63.7%
[31]
  viability, T/C: 45.1%
[32]
  viability, T/C: 41%
[33]
  viability, T/C: 31.9%
[34]
  viability, T/C: 36.2%
[35]
  viability, T/C: 37%
[36]
  viability, T/C: 29.8%
[37]
  viability, T/C: 29.8%
[38]
  viability, T/C: 24.9%
[39]
  viability, T/C: 23.1%
[40]
  viability, T/C: 19.5%
[41]
  viability, T/C: 19.4%
[42]
  viability, T/C: 22.3%

— PubChem BioAssay AID1963978 (Molecular Pharmacology Branch, DTP, NCI, 2024)
